Source: patent US6514912B1, “Use of benzo[C]quinolizine derivatives as plant growth regulators” (Applied Research Systems ARS Holding N.V., priority 1998, dated 2003)

Test system: Arabidopsis Thaliana Columbia (Col 0) seeds
Experiment: Germination of Arabidopsis seeds in the dark, hypocotyledon length
Format: in vivo
Details: 10 days in the dark
Method: Batches of 25 seeds of Arabidopsis Thaliana Columbia (Col 0) were made to germinate in a suitable culture medium consisting of 0.5 ×MS at pH 5.7, containing 1% sucrose, 1×Vitamin B5 Gamborg, and 0.8% phyto-agar in the presence of the 1,2,5,6-tetrahydro-(11H)benzo[c]quinolizin-3-one inhibitor at the concentrations of 0, 0.01, 0.1, 1 and 10 micromolar. After two hours of treatment in light, the seeds were covered with three layers of aluminium foil and kept at 21° C. in a growth chamber. After 10 days in the dark, the length of the hypocotyledons was measured. […] A reduction of 50% in the hypocotyledons as compared to the controls was found for the seeds treated with a concentration of 0.1 micromolar of inhibitor.

O=C1C=C2CCc3ccccc3N2CC1 [1,2,5,6-tetrahydro-(11H)benzo[c]quinolizin-3-one]
length of the hypocotyledons versus inhibitor concentration (0.01, 0.1, 1 and 10 micromolar, untreated approximately 15-16 mm): progressively shorter as the concentration of inhibitor used was increased
reduction in the hypocotyledons as compared to the controls (0.1 micromolar inhibitor in culture medium, 21° C., batches of 25 seeds): 50%
